Drawing on patent publication US20190256994A1, “Electrochemical Deposition of Elements in Aqueous Media” (LumiShield Technologies Incorporated, priority 2016, published 2019), this text covers pKa in water and pH for six compounds.

For one data set the following is noted: acid of the ligand; cited from earlier work.
As for “Methanesulfonate [Methanesulfonate (MSO)]”, the pKa in water is -1.61.

On to `O=S(=O)(O)C(F)(F)F` [Triflate (TfO), Triflate], for which the pKa in water is on record as -3.43.

With “p-Toluenesulfonate [p-Toluenesulfonate (p-TSA)]”, the pKa in water is -2.14.

On to “Trifluoroacetate [Trifluoroacetate (TFA)]”, for which the pKa in water was 0.52.

Turning to `O=S(=O)(NS(=O)(=O)C(F)(F)F)C(F)(F)F` [bis(trifluoromethane) sulfonamide(Tf2N), bis(trifluoromethane) sulfonamide], the pKa in water entry is “Too negative to measure”.

A further data set is classed as physicochemical. The conditions noted are these: 1 M aluminum aqueous solution.
Consider `[Cl][Al]([Cl])[Cl]` [AlCl3, Aluminum chloride], for which the pH is 2.04.
